The record followed here is US12071431B2, “Pyridin-sulfonamide compounds for the treatment of conditions related to interleukin 1 beta” (ALLINKY BIOPHARMA, priority 2018, dated 2024).

The test system of one data set is IL-1β. In words: In vitro inhibition of IL-1β in human primary macrophages challenged with LPS (ELISA). Conditions: Primary macrophage, 2 hours compound pre-treatment, 100 ng/mL LPS, 16 hours, read-out: IC50 (IL-Iβ inhibition). Format: cell-based. Here is the method: Example 12—In Vitro Inhibition of IL-1β in Human Primary Macrophages Challenged with LPS
5 mL of RPMI media without serum (1:1) was added to a sample of 5 mL of human whole blood in EDTA or sodium citrate and mixed well by inversion. 3 mL of Histopaque-1077 was added to a 15 mL conical centrifuge tube and brought to room temperature. Using a transfer pipette, 10 mL of the blood-RPMI mixture was carefully layered onto the Histopaque-1077 and was centrifuged at 400×g for exactly 30 minutes at room temperature.
After centrifugation, a pasteur pipette was used to aspirate the upper layer to within 0.5 cm of the opaque interface containing the mononuclear cells. The upper layer was discarded. With a Pasteur pipette, the opaque interface was carefully transferred to a clean conical centrifuge tube. 5 mL RPMI was added to the tube and mixed by inversion, followed by centrifugation at 250×g for exactly 10 minutes. The supernatant was aspirated and discarded.
The leukocyte pellet was re-suspended with 5 mL RPMI and mixed gently with a Pasteur pipette, followed by centrifugation at 250×g for exactly 10 minutes. The pellet was washed 3× with PBS and re-suspended in RPMI medium.
2×10^5 PBMCs at a total volume of 200 μL/well were plated into a 96-well plate and incubated for 4 hrs at 37° C. in a CO2 incubator to allow the monocytes to settle, leaving the lymphocytes in suspension. Following incubation, 100 μL were aspirated out of each well to ensure removal of the lymphocyte population.
The monocytes were differentiated to macrophages by addition of 200 ng/mL of recombinant human GM-CSF (4 mg/mL stock) and incubated at 37° C./5% CO2 for 6 days. The medium was changed every two days by removing half the volume of medium in the well and re-supplementing with fresh RPMI complete medium and recombinant human GM-CSF.
Following differentiation, the cells were treated in duplicates with a compound according to the invention in a total volume of 50 μL, maintaining a final DMSO percentile of 0.5%. The plate was transferred to an incubator maintained at 37° C./5% CO2 for 2 hours. The cells were stimulated with 100 ng/mL of LPS (4×) (1 mg/mL stock) in a total volume of 50 μL.
The plate was transferred to an incubator maintained at 37° C./5% CO2 for 16 hours.
• 1. Each well from a pre-coated ELISA plate was aspirated and washed with wash buffer (0.05% Tween 20 in PBS; pH 7.2-7.4) by filling each well with wash buffer (300 μL). The process was repeated two times for a total of three washes. The liquid was removed completely at each step. After the last wash, any remaining wash buffer was removed. • 2. Plates were blocked by adding 300 μL of block buffer (1% BSA in PBS) to each well and incubated at room temperature for 1 hour. • 3. The aspiration/wash as in step 1 was repeated. • 4. 100 μL of sample or standard prepared in reagent diluent (0.1% BSA, 0.05% Tween 20 in PBS pH7.2-7.4) was added. The wells were covered with an adhesive strip and incubated for 2 hours at room temperature. • 5. The aspiration/wash as in step 1 was repeated. • 6. 100 μL of detection antibody, diluted in reagent diluent, was added to each well. The wells were covered with a new adhesive strip and incubated for 2 hours at room temperature. • 7. The aspiration/wash as in step 1 was repeated. • 8. 100 μL of the working dilution (1:200 from the stock) and streptavidin-HRP was added to each well. The plate was covered and incubated for 20 minutes at room temperature. • 9. 100 μL of substrate solution (1:1 mixture of H2O2 and tetramethylbenzidine) was added to each well and incubated for 20 minutes at room temperature. • 10.50 μL of stop solution (2N H2SO4) was added to each well. The plate was tapped gently to ensure thorough mixing. • 11. The optical density of each well was determined immediately using a microplate reader (Spectramax Plus) set to 450 nm. Cytokine Viability Assessment […]

The subject of data set [1] is human primary macrophages. The data set can be described thus: Cell viability assessment (CellTiter-Glo) in the macrophage assay plates. Format: cell-based. Details: concentration or dose not given beside the values. Conditions: CellTiter-Glo luminescent assay. As to the method:
2×10^5 PBMCs at a total volume of 200 μL/well were plated into a 96-well plate and incubated for 4 hrs at 37° C. in a CO2 incubator to allow the monocytes to settle, leaving the lymphocytes in suspension. Following incubation, 100 μL were aspirated out of each well to ensure removal of the lymphocyte population. The monocytes were differentiated to macrophages by addition of 200 ng/mL of recombinant human GM-CSF (4 mg/mL stock) and incubated at 37° C./5% CO2 for 6 days. The medium was changed every two days by removing half the volume of medium in the well and re-supplementing with fresh RPMI complete medium and recombinant human GM-CSF. Following differentiation, the cells were treated in duplicates with a compound according to the invention in a total volume of 50 μL, maintaining a final DMSO percentile of 0.5%. The plate was transferred to an incubator maintained at 37° C./5% CO2 for 2 hours. The cells were stimulated with 100 ng/mL of LPS (4×) (1 mg/mL stock) in a total volume of 50 μL. The plate was transferred to an incubator maintained at 37° C./5% CO2 for 16 hours. 100 μl/well volume of CellTiter-Glo® luminescent reagent was added to the assay plates and incubated at room temperature for 30 mins on a plate shaker. Following incubation, the luminescent signal of each well was determined using a microplate reader (Perkin Elmer ENVISION 2104). Cytotoxicity of the test compounds was determined utilizing the following formula: % Cytotoxicity=100−(100*(Average Test Compound Counts−Average Negative Control Counts)/(Average Positive Control Counts−Average Negative Control Counts)) All of the “Counts” stated in this formula are derived from “luminescent signal” determined as described for the cytokine viability assessment.

Data set [2] relates to Non-Alcoholic Steatohepatitis (NASH) in male C57BL/6 mice. The data set can be described thus: Treatment of non-alcoholic steatohepatitis (NASH) in male C57BL/6 mice (streptozotocin + high-fat diet). Format: in vivo. The settings on record: for hepatomegaly and liver to body weight ratio: 28 days of treatment, FIG. 3. As to the method: Example 15: Effect of Compound 5 and 7 in the Treatment of Non-Alcoholic Steatohepatitis (NASH) in Male C57BL/6 Mice
Timed pregnant mice (n=30) were selected for the study. The delivered pups were subcutaneously injected on the post-natal day 2 (PND-2) with 200 μg of Streptozotocin and were allowed to remain with the mother until they reached the weanling age. After weanling, the male pups were selected and fed with 60% kcal fat diet (Research Diet-D12492) for the next 2 weeks. All the animals were observed twice daily for clinical signs.
Mice were dosed with vehicle, test compounds and reference compound (elafibranor) twice daily morning (9.00 AM) and evening before the start of dark cycle (6:00 PM) from day 0 to 28.
Animal body weight measurements were made daily for the complete duration of the experiment.
Animals were dosed for 28 days (from week 6 to 10) with the test and reference compounds.
Blood glucose was estimated before the treatment start and on the termination day 28. Serum ALT and AST levels were measured from the plasma before the treatment start and on day 28.
Histopathology analysis including H&E staining, Masson's trichrome staining and Oil-Red-O (ORO) staining was performed for the liver tissues.
All the H&E stained tissue sections were examined by light microscopy. As per the below grading system (Kleiner et al., 2005) in 200× objective lens, NAFLD scoring was done for steatosis, lobular inflammation and hepatic ballooning.
All the Masson's trichrome stained tissue sections were examined by light microscopy in 100× objective lens. Randomly selected five fields (approx 684.85 μm×917.11 m per field) from each liver were subjected to collagen proportion area measurement by using Image Pro Premier 9.1 software. The percentage of collagen proportion area was calculated by dividing collagen tissue area by total tissue area.
All the Oil-Red-O stained tissue sections were examined by light microscopy in 100× objective lens. Randomly selected five fields (approximately 688.33 μm×922.45 μm per field) from each liver were subjected to measure stained area by using Image Pro Premier 9.1 software. The percentage of stained area was calculated by dividing lipid stained tissue area by total tissue area.

A further data set concerns Bleomycin-induced IPF. In words: Treatment of bleomycin-induced IPF in mice. Format: in vivo. From the text: Example 16: Effect of Compound 7 in the Treatment of Bleomycin-Induced IPF Timed pregnant mice (n=30) were selected for the study. The delivered pups were subcutaneously injected on the post-natal day 2 (PND-2) with 1.5 U/kg of Bleomycin (intra-tracheal) and were allowed to remain with the mother until they reached the weanling age. After weanling, the male pups were selected and fed with 60% kcal fat diet (Research Diet-D12492) for the next week. All the animals were observed twice daily for clinical signs. Mice were orally dosed with vehicle, test compounds and reference compound (Pirfenidone) twice daily morning (9.00 AM) and evening before the start of dark cycle (6:00 PM) from day 0 to 14. Animal body weight measurements were made daily for the complete duration of the experiment. Animals were dosed for 14 days with the test and reference compounds. Lung hydroxyproline level was estimated before the treatment start and on the termination day 14. Total cell count and differential leukocyte count in BALF were measured before the treatment start and on […]. Histopathology analysis in the form of H&E Ashcroft score was performed for the lung tissues. All the H&E stained tissue sections were examined by light microscopy. As per the below grading system (Kleiner et al., 2005) in 200× objective lens, IPF scoring was carried out. Collagen Proportion Area (% CPA) Measurement: Masson's Trichrome Staining All the Masson's trichrome stained tissue sections were examined by light microscopy in 100× objective lens. Randomly selected five fields (approx 684.85 μm×917.11m per field) from each lung were subjected to collagen proportion area measurement by using Image Pro Premier 9.1 software. The percentage of collagen proportion area was calculated by dividing collagen tissue area by total tissue area.

[3] abbreviates: 3 mg/kg dose, twice daily, 28 days, H&E NAFLD scoring.

What is called IC50 is the concentration that inhibits the measured activity by half. On to `CN(C)S(=O)(=O)c1cnc(N2CCC(Oc3ccc(Cl)cc3)CC2)c(-c2ccc3c(c2)CCO3)c1` [Compound 1], for which the IC50 in the data set on IL-1β stood at 0.115 µM. In addition, the Cell viability in data set [1] is 100%.

With `CN(C)S(=O)(=O)c1cnc(N2CCC(Oc3ccc(Cl)cc3)CC2)c(Nc2ccc3c(c2)CCO3)c1` [Compound 2], the IC50 in the data set with IL-1β stood at 0.029 µM. The molecule further showed a Cell viability in data set [1] of 100%.

As to `CN(C)S(=O)(=O)c1cnc(N2CCC(Oc3ccc(Cl)cc3)CC2)c(Nc2ccc3c(c2)OCO3)c1` [Compound 3], in the data set with IL-1β, the IC50 is 0.121 µM. Besides, in data set [1], the Cell viability worked out at 100%.

`CCCOc1ccc(Nc2cc(S(=O)(=O)N(C)C)cnc2N2CCN(Cc3ccc(Cl)cc3)CC2)cc1` [Compound 4]: the half-maximal inhibitory concentration (IC50) in the data set with IL-1β is 0.3 µM. The Cell viability in data set [1] was 100%.

Turning to `CN(C)S(=O)(=O)c1cnc(N2CCC(Oc3ccc(Cl)cc3)CC2)c(Oc2ccc3c(c2)CCO3)c1` [Compound 5], the IC50 with IL-1β turned out to be 0.028 µM. In data set [1], this molecule registered a Cell viability of 100%. In data set [2] (3 mg/kg dose, twice daily, 28 days, FIG. 1), the “NAFLD activity score (NAS)” value is recorded as “significant reduced NAS score than disease controls”. In data set [2] (setting [3]), the hepatic ballooning result is recorded as “trend towards decreased”, the “lobular inflammation in the liver” value was “significantly reduced” and the “steatosis in the liver” value is given as “trend towards decreased”. For the same molecule, the “hepatomegaly and liver to body weight ratio” value in data set [2] is “did not show any hepatomegaly and increase in liver to body weight ratio”. In data set [2] (after 28 days of treatment, FIG. 2), the “Serum AST levels” value is reported as “significantly reduced”.

Regarding `CN(C)S(=O)(=O)c1cnc(N2CCC(Oc3ccc(Cl)cc3)CC2)c(Nc2ccc3oc(CO)cc3c2)c1` [Compound 6], in the data set with IL-1β, the IC50 was determined as 0.013 µM. This molecule gave a Cell viability in data set [1] of 100%.

As for `CCOc1ccc(Oc2cc(S(=O)(=O)N(C)C)cnc2N2CCC(Oc3ccc(C(N)=O)nc3)CC2)cc1` [Compound 8], the IC50 with IL-1β stood at 0.337 µM. Further, in data set [1], the Cell viability is recorded as 100%.

With `CN(C)S(=O)(=O)c1cnc(N2CCC(Oc3ccc(C(N)=O)nc3)CC2)c(Oc2ccc(OC(F)(F)F)cc2)c1` [Compound 9], the IC50 with IL-1β was 0.531 µM. In data set [1], the Cell viability is on record as 100%.

As for `Cc1ccc(Oc2cc(S(=O)(=O)N(C)C)cnc2N2CCC(Oc3ccc(C(N)=O)nc3)CC2)cc1` [Compound 10], the IC50 with IL-1β worked out at 0.41 µM. In data set [1], this molecule returned a Cell viability of 100%.

In the case of `CCOc1ccc(Oc2cc(S(C)(=O)=O)cnc2N2CCC(Oc3ccc(Cl)cc3)CC2)cc1` [Compound 11], the IC50 with IL-1β amounted to 0.753 µM. This molecule had a Cell viability in data set [1] of 100%.

For the molecule `CN(C)S(=O)(=O)c1cnc(N2CCC(Oc3ccc(C(N)=O)nc3)CC2)c(Oc2ccc3c(c2)CCO3)c1` [Compound 12], the IC50 with IL-1β stood at 2.3 µM. The same molecule yielded a Cell viability in data set [1] of 100%.

As for `CSc1ccc(C(=O)/C=C/c2cc(C)c(OC(C)(C)C(=O)O)c(C)c2)cc1` [Elafibranor, reference compound], the “hepatomegaly and liver to body weight ratio” value in data set [2] is “hepatomegaly and increase in liver to body weight ratio”.

As to `Cc1ccc(=O)n(-c2ccccc2)c1` [Pirfenidone, reference compound], the BALF macrophage counts result in the data set on Bleomycin-induced IPF (compared with Bleomycin control, Compound 7 p>0.05, Pirfenidone p<0.05, FIGS. 5A and 5B) is “reduced”. Further, the “% CPA (Collagen Proportion Area)” value in the data set on Bleomycin-induced IPF (lung, Masson's trichrome, in comparison with Bleomycin control, p<0.05, FIG. 6B) is “significant reduction”. The “fibrosis score (H&E Ashcroft Score)” value in the data set on Bleomycin-induced IPF (lung, in comparison with Bleomycin control, p<0.05, FIG. 6A) is “significant reduction”.
